Reference: patent US10781209B2, “1H-pyrrolo[2,3-c]pyridin-7(6H)-ones and pyrazolo[3,4-c]pyridin-7(6H)-ones as inhibitors of BET proteins” (Incyte Corporation, priority 2014, dated 2020)

System: KMS.12.BM cells
Test: KMS.12.BM cell viability assay (Cell Titer-GLO, ATP quantitation)
Type: cell-based
Conditions: 72 h, human myeloma cell line, 3 days, concentration required for 50% cell death
Procedure: KMS.12.BM cell line (human myeloma) was purchased from JCRB (Osaka, Japan) and maintained in RPMI with 10% FBS culture medium. To measure the cytotoxic activity of the compounds through ATP quantitation, the KMS.12.BM cells are plated in the RPMI culture medium at 5000 cells/well/per 100 μL into a 96-well polystyrene clear black tissue culture plate (Greiner-bio-one through VWR, NJ), in the presence or absence of a concentration range of test compounds. After 3 days, […] Cell Titer-GLO Luminescent (Promega, Madison, Wis.) cell culture agent is added to each well for 10 minutes at room temperature to stabilize the luminescent signal. This determines the number of viable cells in culture based on quantitation of the ATP present, which signals the presence of metabolically active cells. Luminescence is measured with the Top Count 384 (Packard Bioscience through Perkin Elmer, Boston, Mass.). Compound inhibition is determined relative to cells cultured with no drug and the IC50 is reported as the compound concentration required for 50% cell death.

`Cn1cc(-c2cccc3c2OC(c2ccccn2)C(=O)N3)c2cc[nH]c2c1=O` (stereo not shown) [Example 5, 8-(6-methyl-7-oxo-6,7-dihydro-1H-pyrrolo[2,3-c]pyridin-4-yl)-2-pyridin-2-yl-2H-1,4-benzoxazin-3(4H)-one 2,2,2-trifluoroacetate] gave an IC50 of at most 1000 nM.
